Experimental data: patent EP1900728A1 (Genecare Research Institute Co., Ltd, priority 2005, dated 2006)

biological target: T1, IκBα ubiquitinating enzyme (SCF complex: ROC1, Cullin1, Skp1, His-TrCP1; with E1, UbcH5b) (Homo sapiens, UniProt P62877+P63208+Q13616+Q9Y297); experiment: Measurement of ubiquitinating enzyme activity (IκBα ubiquitination, time-resolved fluorescence with Eu(K)-labeled ubiquitin and XL665-labeled anti-GST antibody); assay type: biochemical; conditions: enzyme activity inhibition test, method (1), Table 5; read-out: EVALUATION
T1 construct: His (polyhistidine); made in house; host or cells: insect cells (baculovirus) for the SCF complex and His-E1; E. coli for His-UBCH5b
Procedure: Method 1: Measurement of ubiquitinating enzyme activity
A recombinant vector His-UBCH5b containing a polyhistidine tag (His) and UBCH5b was prepared. E. coli was transformed with the vector, the protein was expressed, and affinity purification was carried out using Ni-NTA agarose (Qiagen). Four types of recombinant baculoviruses (ROC1, Cullin1, Skp1, and His-TrCP1) were prepared for the SCF complex protein, insect cells were infected in quadruplicate for expression, and affinity purification was carried out using Ni-NTA agarose. Recombinant baculoviruses His-IKKβ, His-E1 were prepared. The insect cells were infected with each of those for expression, and affinity purification was carried out using Ni-NTA agarose. A recombinant vector GST-IκBα was prepared by fusing glutathione-S-transferase tag (GST) and IκBα, E. coli was transformed with the vector for the protein expression, and affinity purification was carried out using glutathione sepharose (Amersham Biosciences). Genetic transformants were prepared by PCR amplification followed by recombination, all of which were based on published human-derived sequences.
Phosphorylation reaction of IκBα was performed by incubating the above-mentioned assay buffer (50 mM Tris-HCl (pH7.4), 2 mM ATP, 5 mM MgCl2, 0.5 mM DTT, 0.1% BSA) containing IκBα and IKKβ at room temperature for 1 hour. Ubiquitination reactions were carried out as follows. Compound samples at various concentrations, ubiquitin, Eu (K)-labeled ubiquitin, E1, UbcH5b, and SCF complex were added to phosphorylated IκBα, and then this was incubated at room temperature for 30 minutes. The reaction was terminated by adding EDTA, the above-mentioned revelation buffer (100 mM phosphate buffer (pH7.0), 0.5 M KF, 0.1% BSA) containing XL665-labeled anti-GST antibody was added and this was left to stand at room temperature for 2 hours. Measurements were made using ARVO-HTS (Perkin Elmer). The ratio of fluorescence intensities at 620 nm and 665 nm (Em 665 nm/Em 620 nm x 10,000) with excitation light at 337 nm was measured.
The ubiquitination level without the addition of a compound sample was used as the control value, and the level in the absence of SCF complex was used as the blank value for the assays. Inhibitory activities of the compounds were indicated as % inhibition = 100 - (value with a compound sample added - blank value) / (control value - blank value) x 100. IC50 was indicated as the concentration of the compound showing 50% inhibition. Eu (K)-labeled ubiquitin, XL665-labeled anti-GST antibody, and XL665-labeled anti-His antibody were purchased from CIS bio international. Costar solid black plates (96 wells) were used for the assays.

T1 sequence (Q9Y297 whole entry): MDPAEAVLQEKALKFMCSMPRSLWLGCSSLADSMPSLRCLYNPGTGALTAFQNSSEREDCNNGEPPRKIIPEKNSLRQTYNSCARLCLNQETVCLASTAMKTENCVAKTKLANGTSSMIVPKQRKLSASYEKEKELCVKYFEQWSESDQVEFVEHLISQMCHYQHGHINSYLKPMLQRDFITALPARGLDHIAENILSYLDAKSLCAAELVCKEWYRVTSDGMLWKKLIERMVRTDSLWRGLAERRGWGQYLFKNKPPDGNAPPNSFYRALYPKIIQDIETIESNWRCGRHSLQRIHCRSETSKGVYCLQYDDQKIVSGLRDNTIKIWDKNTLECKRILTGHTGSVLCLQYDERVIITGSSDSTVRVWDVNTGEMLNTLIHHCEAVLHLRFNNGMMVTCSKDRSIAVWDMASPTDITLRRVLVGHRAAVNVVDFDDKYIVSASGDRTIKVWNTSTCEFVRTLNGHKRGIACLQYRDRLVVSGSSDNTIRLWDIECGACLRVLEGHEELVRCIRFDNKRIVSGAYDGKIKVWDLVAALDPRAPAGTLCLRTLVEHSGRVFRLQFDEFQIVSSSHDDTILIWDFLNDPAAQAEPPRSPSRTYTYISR
T1 sequence (Q13616 whole entry): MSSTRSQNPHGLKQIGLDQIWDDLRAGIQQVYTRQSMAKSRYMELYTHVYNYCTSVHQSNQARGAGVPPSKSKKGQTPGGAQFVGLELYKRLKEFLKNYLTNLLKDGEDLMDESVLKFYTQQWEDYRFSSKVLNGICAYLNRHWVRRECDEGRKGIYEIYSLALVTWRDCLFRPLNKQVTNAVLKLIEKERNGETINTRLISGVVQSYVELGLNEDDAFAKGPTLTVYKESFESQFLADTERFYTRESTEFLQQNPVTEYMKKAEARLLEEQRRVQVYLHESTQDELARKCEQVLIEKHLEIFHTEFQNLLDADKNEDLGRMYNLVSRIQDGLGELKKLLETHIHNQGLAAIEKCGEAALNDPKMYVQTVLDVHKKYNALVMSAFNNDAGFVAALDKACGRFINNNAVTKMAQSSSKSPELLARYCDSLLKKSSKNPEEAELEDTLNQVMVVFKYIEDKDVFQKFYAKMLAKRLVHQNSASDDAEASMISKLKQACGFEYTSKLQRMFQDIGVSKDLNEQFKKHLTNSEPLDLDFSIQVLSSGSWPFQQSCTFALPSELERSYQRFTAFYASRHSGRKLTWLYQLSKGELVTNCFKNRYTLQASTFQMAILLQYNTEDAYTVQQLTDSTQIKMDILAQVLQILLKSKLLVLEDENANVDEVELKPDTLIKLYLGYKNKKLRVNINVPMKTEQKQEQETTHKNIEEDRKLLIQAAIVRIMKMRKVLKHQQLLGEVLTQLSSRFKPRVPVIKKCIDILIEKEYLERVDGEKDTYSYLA
T1 sequence (P63208 whole entry): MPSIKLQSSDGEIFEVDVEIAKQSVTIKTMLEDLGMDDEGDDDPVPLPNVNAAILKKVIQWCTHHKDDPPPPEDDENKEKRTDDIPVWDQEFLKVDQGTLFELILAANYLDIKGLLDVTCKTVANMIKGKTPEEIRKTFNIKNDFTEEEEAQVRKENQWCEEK
T1 sequence (P62877 whole entry): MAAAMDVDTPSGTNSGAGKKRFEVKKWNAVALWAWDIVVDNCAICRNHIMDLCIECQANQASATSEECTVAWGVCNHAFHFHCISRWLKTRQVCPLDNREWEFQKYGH

`CN1CCN(c2ccc(/C=C3\C(=O)N(c4ccccc4)N=C3Cc3ccccc3)cc2)CC1` [Compound 100] and `O=C1/C(=C\c2ccc(-n3cccn3)cc2)C(Cc2ccccc2)=NN1c1ccccc1` [Compound 30] cannot be ordered by IC50: less than 40 µM for the first, 10 to 20 µM for the second.

`COCC1=NN(c2cccc(C(=O)O)c2)C(=O)/C1=C\c1ccc(N2CCCC2)cc1` [Compound 471] and `CC1=NN(c2cccc(C(=O)O)c2)C(=O)/C1=C\c1ccc(N2CCCC2CO)cc1` (stereo not drawn) [Compound 422] fall in the same range of IC50: 10 to 20 µM for the first, 10 to 20 µM for the second.

`COCC1=NN(c2ccccc2)C(=O)/C1=C\c1ccc(CO)o1` [Compound 7] and `O=C(O)c1cccc(N2N=C(c3ccoc3)/C(=C/c3ccc(CO)o3)C2=O)c1` [Compound 488] cannot be ordered by IC50: less than 40 µM for the first, 10 to 20 µM for the second.

`COC(=O)c1ccc(COc2ccc(/C=C3\C(=O)N(c4ccccc4)N=C3C)cc2OC)cc1` [Compound 122] and `COCC1=NN(c2ccccc2)C(=O)/C1=C\c1ccc(OCc2ccccc2)c(OC)c1` [Compound 3] cannot be ordered by IC50: less than 40 µM for the first, 10 to 20 µM for the second.

`COc1ccc(C2=NN(c3ccc(C(=O)O)cc3)C(=O)C2=Cc2ccc(-n3cncn3)cc2)cc1OC` [Compound 343] and `COc1cc(/C=C2\C(=O)N(c3ccc(C(=O)O)cc3)N=C2c2ccncc2)ccc1O` [Compound 286] cannot be ordered by IC50: less than 40 µM for the first, 10 to 20 µM for the second.

`CC1=NN(c2ccc(C(=O)O)cc2)C(=O)/C1=C\c1ccc(N2CCC(CO)CC2)cc1` [Compound 426] and `O=C(O)c1ccc(N2N=C(Cc3ccccc3)/C(=C/c3ccc(N4CCCC4)cc3)C2=O)cc1` [Compound 269] fall in the same range of IC50: 10 to 20 µM for the first, 10 to 20 µM for the second.

First: O=C(O)c1ccc(N2N=C(c3ccoc3)/C(=C/c3ccc4c(c3)OCO4)C2=O)cc1 [Compound 476]
Second: O=C(O)c1ccc(N2N=C(c3ccccn3)/C(=C/c3ccc4c(c3)OCCO4)C2=O)cc1 [Compound 292]
The IC50 of the first is lower: less than 10 µM for the first, 10 to 20 µM for the second. The first is the more potent here.

First: O=C(O)c1ccc(N2N=C(c3ccncc3)/C(=C/c3ccc(-c4ccccc4F)o3)C2=O)cc1 [Compound 341]
Second: O=C1/C(=C\c2ccc(-c3ccccc3F)o2)C(c2ccoc2)=NN1c1ccccc1 [Compound 15]
The IC50 of the first is higher: 10 to 20 µM for the first, less than 10 µM for the second.

`CCCNC(=O)COc1ccc(/C=C2\C(=O)N(c3ccc(C(=O)O)cc3)N=C2C)cc1` [Compound 534] and `CC1=NN(c2ccccc2)C(=O)/C1=C\c1ccc(OCC(=O)Nc2ccccc2)cc1` [Compound 205] cannot be ordered by IC50: 10 to 20 µM for the first, less than 40 µM for the second.

`CC1=NN(c2cccc(C(=O)O)c2)C(=O)/C1=C\c1cccc2cc[nH]c12` [Compound 356] and `CC1=NN(c2cccc(S(N)(=O)=O)c2)C(=O)/C1=C\c1cccc2cc[nH]c12` [Compound 140] cannot be ordered by IC50: less than 10 µM for the first, less than 10 µM for the second.

`CC1=NN(c2ccc(S(N)(=O)=O)cc2)C(=O)C1=Cc1cccc2cc[nH]c12` [Compound 151] and `CC1=NN(c2ccc(S(N)(=O)=O)cc2)C(=O)/C1=C\c1ccccc1O` [Compound 219] cannot be ordered by IC50: less than 10 µM for the first, less than 40 µM for the second.

`COc1cc(/C=C2\C(=O)N(c3cccc(C(=O)O)c3)N=C2C)ccc1OCC1CC1` [Compound 393] and `CCOC(=O)c1ccc(COc2ccc(/C=C3\C(=O)N(c4cccc(C(=O)O)c4)N=C3C)cc2OC)o1` [Compound 395] cannot be ordered by IC50: 10 to 20 µM for the first, less than 40 µM for the second.

First: CC1=NN(c2cccc(S(N)(=O)=O)c2)C(=O)/C1=C\c1ccc2cc[nH]c2c1 [Compound 149]
Second: CC1=NN(c2cccc(S(N)(=O)=O)c2)C(=O)/C1=C\c1ccc(-n2cccn2)cc1 [Compound 145]
The IC50 of the first is lower: less than 10 µM for the first, 10 to 20 µM for the second.

`CCCCC1=NN(c2ccc(C(=O)O)cc2)C(=O)/C1=C\c1ccc2ccccc2c1` [Compound 336] and `O=C(O)c1ccc(N2N=C(Cc3ccccc3)/C(=C/c3ccc4ccccc4c3)C2=O)cc1` [Compound 264] fall in the same range of IC50: 10 to 20 µM for the first, 10 to 20 µM for the second.

`CC1=NN(c2ccc(C(=O)O)cc2)C(=O)/C1=C\c1nccs1` [Compound 257] and `O=C(O)c1ccc(N2N=C(Cc3ccccc3)/C(=C/c3nccs3)C2=O)cc1` [Compound 270] cannot be ordered by IC50: less than 40 µM for the first, less than 40 µM for the second.

`CCOC(=O)CN1N=C(C)/C(=C/c2ccc(O)c(OC)c2)C1=O` [Compound 130] and `COc1cc(/C=C2/C(=O)N(c3ccccc3F)N=C2C)ccc1O` [Compound 197] cannot be ordered by IC50: 10 to 20 µM for the first, less than 40 µM for the second.

`CC1=NN(c2cccc(C(=O)O)c2)C(=O)/C1=C\c1ccsc1` [Compound 515] and `CC1=NN(c2cccc(C(=O)O)c2)C(=O)/C1=C\c1ccc2occc2c1` [Compound 368] cannot be ordered by IC50: less than 40 µM for the first, less than 10 µM for the second.

`CC1=NN(c2ccc(C(=O)O)cc2)C(=O)/C1=C\c1cc2ccccc2n1C` [Compound 360] and `CC1=NN(c2cccc(C(=O)O)c2)C(=O)/C1=C\c1ccc2c(ccn2C)c1` [Compound 493] cannot be ordered by IC50: less than 10 µM for the first, less than 10 µM for the second.

First: CC1=NN(c2cccc(S(N)(=O)=O)c2)C(=O)/C1=C\c1ccc(N2CCN(c3ccc(F)cc3)CC2)cc1 [Compound 177]
Second: CC1=NN(c2ccc(S(N)(=O)=O)cc2)C(=O)/C1=C\c1ccc(N2CCN(c3ccc(F)cc3)CC2)cc1 [Compound 176]
The IC50 of the first is higher: 10 to 20 µM for the first, less than 10 µM for the second.

`COc1cc(/C=C2\C(=O)N(c3cccc(S(N)(=O)=O)c3)N=C2C)ccc1OCc1c(C)noc1C` [Compound 153] and `CCOC(=O)c1ccc(COc2ccc(/C=C3\C(=O)N(c4cccc(S(N)(=O)=O)c4)N=C3C)cc2OC)o1` [Compound 155] cannot be ordered by IC50: less than 40 µM for the first, less than 40 µM for the second.

`COc1cc(/C=C2\C(=O)N(c3ccccc3)N=C2Cc2ccccc2)ccc1O` [Compound 22] and `O=C1/C(=C\c2ccc3c(c2)OCCO3)C(c2cccnc2)=NN1c1ccccc1` [Compound 66] cannot be ordered by IC50: 10 to 20 µM for the first, less than 40 µM for the second.

`CC1=NN(c2ccc(C(=O)NCC(C)O)cc2)C(=O)C1=Cc1ccc2c(c1)OCCO2` (stereo not drawn) [Compound 400] and `COCCNC(=O)c1cccc(N2N=C(C)/C(=C/c3ccc4c(c3)OCCO4)C2=O)c1` [Compound 405] cannot be ordered by IC50: less than 40 µM for the first, less than 40 µM for the second.

`CC1=NN(c2ccc(C(=O)O)cc2)C(=O)/C1=C\c1c(C)nn(C)c1Cl` [Compound 514] and `CC1=NN(c2ccc(C(=O)O)cc2)C(=O)/C1=C\c1cccc2nccnc12` [Compound 331] cannot be ordered by IC50: less than 40 µM for the first, 10 to 20 µM for the second.

First: CC1=NN(c2ccc(S(N)(=O)=O)cc2)C(=O)C1=Cc1c[nH]c2ccc(Cl)cc12 [Compound 146]
Second: CC1=NN(c2ccc(C(=O)N(C)C)cc2)C(=O)/C1=C\c1ccc2[nH]ccc2c1 [Compound 363]
The IC50 of the first is lower: less than 10 µM for the first, 10 to 20 µM for the second.

First: COc1cc(/C=C2\C(=O)N(c3cccc(S(N)(=O)=O)c3)N=C2C)ccc1OS(=O)(=O)c1ccc(C)cc1 [Compound 203]
Second: CC1=NN(c2cccc(C(=O)O)c2)C(=O)/C1=C\c1ccc2c(ccn2C(=O)c2ccccc2)c1 [Compound 529]
The IC50 of the first is higher: 10 to 20 µM for the first, less than 10 µM for the second.

`O=C1/C(=C\c2ccc(-n3cccn3)cc2)C(C2CC2)=NN1c1ccccc1` [Compound 79] and `O=C1/C(=C\c2ccc(-n3cccn3)cc2)C(c2cccnc2)=NN1c1ccccc1` [Compound 67] cannot be ordered by IC50: less than 40 µM for the first, less than 40 µM for the second.

`O=C1/C(=C\c2cccc3nccnc23)C(C2CC2)=NN1c1ccccc1` [Compound 72] and `O=C(O)c1ccc(N2N=C(c3ccccn3)/C(=C/c3ccc(N4CCC(O)CC4)s3)C2=O)cc1` [Compound 293] cannot be ordered by IC50: less than 40 µM for the first, less than 40 µM for the second.

`CCOC(=O)CN1CCN(c2ccc(/C=C3\C(=O)N(c4cccc(C(=O)O)c4)N=C3C)cc2)CC1` [Compound 446] and `CC1=NN(c2cccc(C(=O)O)c2)C(=O)/C1=C\c1ccc(-n2cccn2)cc1` [Compound 379] cannot be ordered by IC50: less than 40 µM for the first, less than 10 µM for the second.

`CCCCC1=NN(c2cccc(C(=O)O)c2)C(=O)/C1=C\c1ccc2c(c1)OCCO2` [Compound 470] showed an IC50 of 10 to 20 µM.
